Experimental data: PMC6010082, “Synthesis and in vitro antiproliferative and antibacterial activity of new thiazolidine-2,4-dione derivatives” (Journal of Enzyme Inhibition and Medicinal Chemistry, 2017)
Values after ≈ are worked out from the molar mass of the structure shown.

Key:
[1] = system: normal human skin fibroblasts (BJ); assay: MTT assay, normal fibroblasts BJ; format: cell-based; settings: Skin fibroblast, 48 h exposure, read-out: IC50 [µg/ml] ± SEM, BJ
Description: (§1) The experiment was carried out using normal human skin fibroblasts (BJ) and tumour cell lines: human lung carcinoma (A549), human hepatocellular carcinoma (HepG2), and human breast adenocarcinoma (MCF-7). All cell lines were obtained from ATCC (American Type Culture Collection, England, UK) and cultured in the appropriate, recommended by ATCC, culture medium, additionally supplemented with 10% foetal bovine serum and antibiotics: 100 U/ml penicillin and 100 µg/ml streptomycin. The cells were maintained at 37 °C in a humidified atmosphere of 5% CO2 and 95% air. Antiproliferative activity of the new compounds was assessed by, commonly used for this purpose, colorimetric MTT assay. Cells with active mitochondrial dehydrogenases reduced intracellularly the tetrazolium dye into purple formazan, which is proportional to the number of viable cells. The cells were seeded in 96-multiwell plates in 100 μl of the appropriate complete culture medium at a concentration of 7 × 10^3 cells/well in the case of BJ cells (normal fibroblasts), 1 × 10^4 cells/well in the case of A549 cells (lung cancer), 1.5 × 10^4 cells/well in the case of HepG2 cells (liver cancer), and 2 × 10^4 cells/well in the case of MCF-7 cells (breast cancer) so as to obtain 60–70% confluent culture after 24 h of incubation at 37 °C – the cells are then in the log (logarithmic) phase, during a period of active proliferation, but still have an unoccupied space to divide. Afterwards, the culture medium was discarded and replaced with 100 µl of different concentrations of new tested compounds and reference antiproliferative agent: irinotecan. The stock solutions of the compounds were prepared in DMSO, and solvent control was being tested concurrently to exclude toxicity attributed to DMSO. Ten serial two-fold dilutions using culture medium were performed to prepare different concentrations of the tested compounds, and the highest tested concentration was 200 µg/ml. Untreated cells (maintained in the complete culture medium) served as a negative control. After exposing cells for 48 h to the tested derivatives, the MTT assay was performed as described earlier. Three independent experiments (n = 3) were performed in a quadruplicate. The obtained data were analysed using GraphPad Prism 5, version 5.03 software (La Jolla, CA). […] Moreover, safety index (SI) was calculated using the following formula: SI=IC50normal cells (BJ)/IC50cancer cells

[2] = system: human lung carcinoma (A549); assay: MTT antiproliferative assay, A549 cells; format: cell-based; settings: for IC50: Homo sapiens, MTT, 48 h exposure, read-out: IC50 [µg/ml] ± SEM, A549; for SI [IC50BJ/IC50], A549: safety index = IC50 normal cells (BJ)/IC50 A549
Description: as §1

[3] = system: methicillin-resistant S. aureus MIKROBANK 14.001; assay: Broth microdilution MIC, methicillin-resistant S. aureus; format: cell-based, Staphylococcus aureus; settings: methicillin-resistant strain, 18 h, 35 °C; for MIC: Staphylococcus aureus, read-out: Minimal inhibitory concentration MIC, Staphylococcus aureus MIKROBANK 14.001
Description: (§2) Newly synthesised compounds’ antibacterial activities were tested in vitro against six aerobic bacteria reference strains: three Gram-positive (Staphylococcus aureus ATCC 25923, methicillin-resistant S. aureus MIKROBANK 14.001 reference strain from National Medicines Institute in Warsaw, and Staphylococcus epidermidis ATCC 12228) and three Gram-negative (Escherichia coli ATCC 25922, Proteus mirabilis ATCC 12453, and Pseudomonas aeruginosa ATCC 9027).
(§3) Bacterial cell suspensions equivalent to 0.5 McFarland (1.5 × 10^8 CFU/ml) were prepared in 0.85% sterile saline. Tested compounds’ stock solutions (50 mg/ml) were dissolved in dimethyl sulphoxide (DMSO).
(§4) Bacteria strain susceptibility to tested agents was determined by broth microdilution method. Broth microdilution method was carried out in accordance with Clinical and Laboratory Standards Institute recommendations and was used as reference method. Mueller–Hinton broth containing two-fold dilutions of the tested substances (at concentrations ranging from 3.91 to 1000 µg/ml) was used to determine their minimal inhibitory concentration (MIC) which is the lowest concentration of an antibacterial that will inhibit the visible growth of a microorganism after 18 h of incubation). Mueller–Hinton broth is recommended as the medium of choice for susceptibility testing of commonly isolated, rapidly growing aerobic, or facultative organisms. Gentamicin (KRKA, Slovenia), an aminoglycoside antibiotic active against a wide range of human bacterial infections, mostly Gram-negative bacteria including Pseudomonas, Proteus, Serratia, and the Gram-positive Staphylococcus, was used as a control antibacterial agent (at concentration from 0.12 µg to 1000 µg).
(§5) Tested compounds two-fold dilutions in Mueller–Hinton broth without bacteria were blank control wells (incubated on equal conditions). Polystyrene trays containing 96 wells were filled with serial two-fold Mueller–Hinton broth dilutions of tested agents. Next, the broth was inoculated with 20 μl of 0.5 McFarland microbial suspension (previously diluted 1:10 by Mueller–Hinton broth). Total volume per each well was 200 μl. After incubation (at 35 °C for 18 h), bacterial cultures’ optical density was measured by microplate reader (BioTek Synergy H4 Hybrid Reader) at 600 nm. The MIC values were determined by the comparison of broth bacterial culture OD600 containing tested concentrations of examined substances to blank control wells.

[4] = system: Staphylococcus aureus ATCC 25923; assay: Broth microdilution MIC, S. aureus ATCC 25923; format: cell-based; settings: 35 °C; for Minimal inhibitory concentration MIC, Staphylococcus aureus 25923: 18 h; for MIC: Staphylococcus aureus, ATCC25923, 18 h, read-out: Minimal inhibitory concentration MIC, Staphylococcus aureus 25923
Description: as §2, §3, §4, §5

[5] = system: human hepatocellular carcinoma (HepG2); assay: MTT antiproliferative assay, HepG2 cells; format: cell-based; settings: for IC50: Homo sapiens, MTT, 48 h exposure, read-out: IC50 [µg/ml] ± SEM, HepG2; for SI [IC50BJ/IC50], HepG2: safety index = IC50 normal cells (BJ)/IC50 HepG2
Description: as §1

[6] = system: human breast adenocarcinoma (MCF-7); assay: MTT antiproliferative assay, MCF-7 cells; format: cell-based; settings: for IC50: Homo sapiens, MCF7, MTT, 48 h exposure, read-out: IC50 [µg/ml] ± SEM, MCF-7; for SI [IC50BJ/IC50], MCF-7: safety index = IC50 normal cells (BJ)/IC50 MCF-7
Description: as §1

[7] = system: Staphylococcus epidermidis ATCC 12228; assay: Broth microdilution MIC, S. epidermidis ATCC 12228; format: cell-based; settings: 35 °C; for Minimal inhibitory concentration MIC, Staphylococcus epidermidis 12228: 18 h; for MIC: Staphylococcus epidermidis, ATCC12228, 18 h, read-out: Minimal inhibitory concentration MIC, Staphylococcus epidermidis 12228
Description: as §2, §3, §4, §5

[8] = system: Escherichia coli ATCC 25922; assay: Broth microdilution MIC, E. coli ATCC 25922; format: cell-based; settings: ATCC25922, 18 h, 35 °C, read-out: Concentration inhibiting E. coli ATCC 25922 growth (MIC)
Description: as §2, §3
Bacteria strain susceptibility to tested agents was determined by broth microdilution method. Broth microdilution method was carried out in accordance with Clinical and Laboratory Standards Institute recommendations and was used as reference method. […]
Tested compounds two-fold dilutions in Mueller–Hinton broth without bacteria were blank control wells (incubated on equal conditions). […] After incubation (at 35 °C for 18 h), bacterial cultures’ optical density was measured by microplate reader (BioTek Synergy H4 Hybrid Reader) at 600 nm. The MIC values were determined by the comparison of broth bacterial culture OD600 containing tested concentrations of examined substances to blank control wells.

A549 = system: A549; set-up: method as in earlier work; settings: A549 tumour cells; ref 6 (Alegaon et al.); cited from earlier work
MCF-7 = system: MCF-7; set-up: method as in earlier work; settings: MCF-7 tumour cells; ref 6 (Alegaon et al.); cited from earlier work
[9] = MCF-7 cells, compared to irinotecan

## Cc1ccc(NC(=S)NN=Cc2cccc(OC(=O)CC3SC(=O)NC3=O)c2)cc1 (centres unmarked) [Compound 23, 3-[{2-[(4-Methylphenyl)carbamothioyl]hydrazinylidene}methyl]phenyl (2,4-dioxo-1,3-thiazolidin-5-yl)acetate]
[1]
  IC50: 25.2 ± 1.52 µg/mL (≈ 56.9 µM)
[2]; A549 cells
  IC50: 31.3 ± 1.66 µg/mL (≈ 70.8 µM)
[2]
  SI [IC50BJ/IC50], A549: 0.80
[3]
  MIC: 125 µg/mL
  Minimal inhibitory concentration MIC, Staphylococcus aureus MIKROBANK 14.001: 125 µg/mL
[4]
  Minimal inhibitory concentration MIC, Staphylococcus aureus 25923: 125 µg/mL
  MIC: 125 µg/mL
[5]; HepG2 cells
  IC50: 15.2 ± 1.25 µg/mL (≈ 34.3 µM)
[5]
  SI [IC50BJ/IC50], HepG2: 1.66
other
  melting point: 194 to 196 °C
[6]; MCF-7 cells
  IC50: 34.2 ± 1.12 µg/mL (≈ 77.2 µM)
[6]
  SI [IC50BJ/IC50], MCF-7: 0.74
[7]
  Minimal inhibitory concentration MIC, Staphylococcus epidermidis 12228: 62.5 µg/mL
  MIC: 62.5 µg/mL

## O=C(C=C1SC(=O)NC1=O)Oc1ccc(C=NNC(=O)c2cccc(Cl)c2)cc1 [Compound 20, 4-{[2-(3-Chlorobenzoyl)hydrazinylidene]methyl}phenyl (2,4-dioxo-1,3-thiazolidin-5-ylidene)acetate]
[1]
  IC50: 11.3 ± 1.05 µg/mL (≈ 26.4 µM)
[5]; HepG2 cells
  IC50: 27 ± 1.02 µg/mL (≈ 62.7 µM)
[5]
  SI [IC50BJ/IC50], HepG2: 0.42
other
  melting point: 278 to 279 °C

## COc1cc(C=NNC(=O)c2cccc(Cl)c2)ccc1OC(=O)CC1SC(=O)NC1=O (centres unmarked) [Compound 16, 4-{[2-(3-Chlorobenzoyl)hydrazinylidene]methyl}-2-methoxyphenyl (2,4-dioxo-1,3-thiazolidin-5-yl)acetate]
[1]
  IC50: 163.3 ± 1.34 µg/mL (≈ 354 µM)
other
  melting point: 220 to 222 °C
[6]; MCF-7 cells
  IC50: 117 ± 1.23 µg/mL (≈ 254 µM)
[6]
  SI [IC50BJ/IC50], MCF-7: 1.39

## O=C(C=C1SC(=O)NC1=O)Oc1ccccc1C=NNC(=O)c1cccc(Cl)c1 [Compound 18, 2-{[2-(3-Chlorobenzoyl)hydrazinylidene]methyl}phenyl (2,4-dioxo-1,3-thiazolidin-5-ylidene)acetate]
[1]
  IC50: 10.1 ± 1.18 µg/mL (≈ 23.4 µM)
[2]; A549 cells, compared to irinotecan
  IC50 fold lower compared to irinotecan, A549: five-fold lower
[2]; A549 cells
  IC50: 8.08 ± 1.05 µg/mL (≈ 18.8 µM)
[2]
  SI [IC50BJ/IC50], A549: 1.24
[3]
  MIC: 125 µg/mL
  Minimal inhibitory concentration MIC, Staphylococcus aureus MIKROBANK 14.001: 125 µg/mL
[4]
  Minimal inhibitory concentration MIC, Staphylococcus aureus 25923: 62.5 µg/mL
  MIC: 62.5 µg/mL
[5]; HepG2 cells, compared to irinotecan
  IC50 fold lower compared to irinotecan, HepG2: four-fold lower
[5]; HepG2 cells
  IC50: 3.86 ± 1.07 µg/mL (≈ 8.98 µM)
other
  melting point: 243 to 245 °C
[6]; MCF-7 cells
  IC50: 1.59 ± 1.06 µg/mL (≈ 3.7 µM)
[6]; [9]
  IC50 fold lower than IC50 of irinotecan, MCF-7: 13 fold
  SI value compared to the reference substance, MCF-7: three-fold higher
[7]
  Minimal inhibitory concentration MIC, Staphylococcus epidermidis 12228: 125 µg/mL
  MIC: 125 µg/mL
[8]
  MIC: 125 µg/mL

## COc1cc(C=NNC(=O)c2cccc(Cl)c2)ccc1OC(=O)C=C1SC(=O)NC1=O [Compound 21, 4-{[2-(3-Chlorobenzoyl)hydrazinylidene]methyl}-2-methoxyphenyl (2,4-dioxo-1,3-thiazolidin-5-ylidene)acetate]
[1]
  IC50: 31.4 ± 1.08 µg/mL (≈ 68.3 µM)
[5]; HepG2 cells
  IC50: 48.4 ± 1.02 µg/mL (≈ 105 µM)
[5]
  SI [IC50BJ/IC50], HepG2: 0.65
other
  melting point: 246 to 248 °C
[6]; MCF-7 cells
  IC50: 124 ± 1.63 µg/mL (≈ 270 µM)
[6]
  SI [IC50BJ/IC50], MCF-7: 0.25

## COc1cc(-c2nnc(NC(=O)CC3SC(=O)NC3=O)s2)cc(OC)c1OC (centres unmarked) [2-(2,4-dioxo-1,3-thiazolidin-5-yl)-N-[5-(3,4,5-trimethoxyphenyl)-1,3,4-thiadiazol-2-yl]acetamide]
A549
  IC50, A549 (literature): 12.7 µg/mL (≈ 29.9 µM)
MCF-7
  IC50, MCF-7 (literature): 15.28 µg/mL (≈ 36 µM)

## O=C(CC1SC(=O)NC1=O)Oc1cccc(C=NNC(=S)Nc2ccccc2)c1 (centres unmarked) [Compound 22, 3-{[2-(Phenylcarbamothioyl)hydrazinylidene]methyl}phenyl (2,4-dioxo-1,3-thiazolidin-5-yl)acetate]
[1]
  IC50: 81.6 ± 1.11 µg/mL (≈ 190 µM)
[2]; A549 cells
  IC50: 57.3 ± 1.19 µg/mL (≈ 134 µM)
[2]
  SI [IC50BJ/IC50], A549: 1.43
[5]; HepG2 cells
  IC50: 48.3 ± 1.07 µg/mL (≈ 113 µM)
[5]
  SI [IC50BJ/IC50], HepG2: 1.69
other
  melting point: 209 to 211 °C
[6]; MCF-7 cells
  IC50: 72 ± 1.1 µg/mL (≈ 168 µM)
[6]
  SI [IC50BJ/IC50], MCF-7: 1.13

## CCc1c2c(nc3ccc(OC(=O)N4CCC(N5CCCCC5)CC4)cc13)-c1cc3c(c(=O)n1C2)COC(=O)[C@]3(O)CC [Irinotecan, irinotecan, reference compound]
[1]
  IC50: 38.7 ± 1.37 µg/mL (≈ 65.9 µM)
[2]; A549 cells
  IC50: 39.7 ± 1.2 µg/mL (≈ 67.7 µM)
[2]
  SI [IC50BJ/IC50], A549: 0.97
[5]; HepG2 cells
  IC50: 14.8 ± 1.24 µg/mL (≈ 25.2 µM)
[5]
  SI [IC50BJ/IC50], HepG2: 2.62
[6]; MCF-7 cells
  IC50: 21.1 ± 1.23 µg/mL (≈ 35.9 µM)
[6]
  SI [IC50BJ/IC50], MCF-7: 1.84
